Experimental data as given in article PMC3412845, “Waking Action of Ursodeoxycholic Acid (UDCA) Involves Histamine and GABAA Receptor Block” (PLoS ONE, 2012).
“And” between values parts separate entries of the source, which are not always exact repeats. Equal values may be shown once.

What was measured:
[1] = tested on: TMN neurons; assay: Firing of TMN neurons recorded in hypothalamic slices; format: cell-based, mouse; settings: UDCA 100 µM, n = 10
Method: (§1) Recordings from histaminergic neurons in male Wistar rat (22–26 day old) or 30–60 day old mouse (SV129, histidine decarboxylase deficient HDC−/− or their wild type littermates) hypothalamic slices were performed as previously described. Slices were obtained between 9 and 11 a.m. In the beginning of whole-cell voltage clamp recordings TMN neurons were identified with the help of DIC microscopy and electrophysiological criteria as previously described. Inhibitory postsynaptic currents (IPSCs) were evoked by local stimulation through a bipolar stainless-steel stimulating electrode (50 µm; WPI, UK). The stimulation of axonal endings coming to TMN from ventrolateral preoptic area (VLPO) was done as described in [22]. […] Individual neurons were separated by vibrodissociation after brief preincubation with papain from the hypothalamic slices of mice or rats and identified as TMN neurons according to their size and shape. Identification was confirmed post hoc with the single-cell RT-PCR (all data presented in the manuscript were obtained from histidine decarboxylase-expressing neurons), [40]. TMN neurons from HDC−/− mice were identified by the expression of peripherin [16]. […] Membrane potentials were not corrected for liquid junction potential (5.6 mV, calculated with LJPCalc, Barry, 1994). […]

[2] = tested on: isolated TMN neurons (sIPSCs); assay: sIPSCs in acutely isolated and cultured neurons; format: cell-based
Method: Recordings from histaminergic neurons in male Wistar rat (22–26 day old) or 30–60 day old mouse (SV129, histidine decarboxylase deficient HDC−/− or their wild type littermates) hypothalamic slices were performed as previously described. Slices were obtained between 9 and 11 a.m. In the beginning of whole-cell voltage clamp recordings TMN neurons were identified with the help of DIC microscopy and electrophysiological criteria as previously described. Inhibitory postsynaptic currents (IPSCs) were evoked by local stimulation through a bipolar stainless-steel stimulating electrode (50 µm; WPI, UK). The stimulation of axonal endings coming to TMN from ventrolateral preoptic area (VLPO) was done as described in [22]. […] Individual neurons were separated by vibrodissociation after brief preincubation with papain from the hypothalamic slices of mice or rats and identified as TMN neurons according to their size and shape. Identification was confirmed post hoc with the single-cell RT-PCR (all data presented in the manuscript were obtained from histidine decarboxylase-expressing neurons), [40]. TMN neurons from HDC−/− mice were identified by the expression of peripherin [16]. Whole-cell voltage-clamp recordings from isolated neurons were done with an EPC-9 amplifier and TIDA for Windows (HEKA, Lambrecht, Germany) at room temperature. Membrane potentials were not corrected for liquid junction potential (5.6 mV, calculated with LJPCalc, Barry, 1994). The intracellular solution was composed of (in mM) 140 KCl, 2 MgCl2, 0.5 CaCl2, 5 EGTA, 2 ATP and 10 HEPES (pH 7.2 adjusted with NaOH). A fast perfusion technique was used for application of ligands and modulators of fast ionotropic receptors, [41]. […] EC50 is the ligand concentration producing a half-maximal response, [ligand] is ligand concentration, and n is the Hill slope. Hill coefficients were obtained from the slope of the log/log plot of the dose-response curves. […] Steady-state amplitudes of the responses were used for the construction of dose-response plots if not mentioned otherwise.

[3] = tested on: GABAA receptor; assay: Voltage dependence of GABAAR block (Woodhull analysis); format: cell-based
Method: Voltage dependence of GABAAR block by UDCA was analysed according to the method of Woodhull, which provides a means of calculating the fraction of the transmembrane field sensed by charged blocking ligand at its acceptor site.

[4] = tested on: AMPA-receptor; assay: Kainate-evoked AMPA-receptor mediated currents in isolated neurons; format: cell-based
Method: as §1

[5] = target: T1, α1β2γ2L GABAA receptors (WT) (UniProt P22723+P62813+P63138); assay: Patch-clamp of recombinant wild-type α1β2γ2L GABAAR in HEK293 cells; format: cell-based, rat α1, rat β2, mouse γ2L
T1 construct: expressed in transfected cells; host or cells: HEK293
T1 sequence (P62813 28-455): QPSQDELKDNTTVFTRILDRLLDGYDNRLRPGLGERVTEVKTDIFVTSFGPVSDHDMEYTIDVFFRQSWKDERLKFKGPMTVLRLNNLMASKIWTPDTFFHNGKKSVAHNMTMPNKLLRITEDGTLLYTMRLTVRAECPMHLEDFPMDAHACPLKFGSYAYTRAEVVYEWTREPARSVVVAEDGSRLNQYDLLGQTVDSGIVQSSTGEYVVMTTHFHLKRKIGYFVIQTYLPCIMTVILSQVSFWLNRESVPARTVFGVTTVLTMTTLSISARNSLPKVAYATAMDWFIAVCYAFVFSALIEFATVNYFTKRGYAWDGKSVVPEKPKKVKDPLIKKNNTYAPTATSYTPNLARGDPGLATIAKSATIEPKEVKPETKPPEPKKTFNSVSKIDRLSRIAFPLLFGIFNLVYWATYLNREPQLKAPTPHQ
T1 sequence (P63138 25-474 limits assumed): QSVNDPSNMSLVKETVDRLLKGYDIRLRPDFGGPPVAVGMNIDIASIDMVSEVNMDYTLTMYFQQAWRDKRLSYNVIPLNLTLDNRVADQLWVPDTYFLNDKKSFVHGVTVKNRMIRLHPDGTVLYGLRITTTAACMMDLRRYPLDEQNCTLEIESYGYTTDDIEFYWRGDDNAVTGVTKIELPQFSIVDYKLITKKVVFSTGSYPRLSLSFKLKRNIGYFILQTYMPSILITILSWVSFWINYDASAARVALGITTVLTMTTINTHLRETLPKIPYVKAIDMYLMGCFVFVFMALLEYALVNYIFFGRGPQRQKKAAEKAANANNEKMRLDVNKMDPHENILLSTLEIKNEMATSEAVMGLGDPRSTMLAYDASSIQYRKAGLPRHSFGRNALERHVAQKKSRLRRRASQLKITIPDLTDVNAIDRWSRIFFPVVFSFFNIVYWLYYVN
T1 sequence (P22723 39-474): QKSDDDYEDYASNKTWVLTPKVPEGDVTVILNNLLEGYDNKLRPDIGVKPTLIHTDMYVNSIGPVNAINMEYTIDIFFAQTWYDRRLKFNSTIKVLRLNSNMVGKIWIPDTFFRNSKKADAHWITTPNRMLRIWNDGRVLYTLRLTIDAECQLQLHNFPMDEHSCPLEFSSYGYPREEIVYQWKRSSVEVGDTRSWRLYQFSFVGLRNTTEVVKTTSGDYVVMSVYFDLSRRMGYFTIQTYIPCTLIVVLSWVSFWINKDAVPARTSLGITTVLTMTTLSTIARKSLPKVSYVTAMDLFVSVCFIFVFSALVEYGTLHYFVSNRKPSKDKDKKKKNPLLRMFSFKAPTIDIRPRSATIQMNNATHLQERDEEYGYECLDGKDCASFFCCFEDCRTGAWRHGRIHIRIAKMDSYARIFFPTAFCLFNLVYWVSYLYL
Method: (§2) HEK 293 cells were obtained from DSM (Deutsche Sammlung von Mikroorganismen und Zellkulturen GmbH, DSM, Braunschweig). They were grown and maintained according to published standard protocols. Briefly, cells were grown in minimal essential medium supplemented with 10% fetal bovine serum, 100units/ml penicillin and streptomycin and 2 mM L-glutamine and splitted once per week. Semiconfluent cells were transfected on the third day after splitting with the help of Lipofectamine 2000 (Invitrogen), recordings were done 48–72 hrs after transfection.
(§3) The GABAAR subunit cDNAs, generously donated by G.Gisselmann (rat α1, mouse γ2L, rat β1, β2 and human β3 [26]) and J.H. Steinbach (rat α1V256S [28] and rat α1Q241L [44]), were subcloned into pcDNA3 (Invitrogen, Karlsruhe, Germany) and applied in a ratio 1∶1∶1 for the α1βxγ2L receptor and 1∶1 for α1β3 or β3γ2L receptors. […] For each receptor type patch clamp recordings were obtained from at least three separate transfections. Whole-cell patch clamp recordings were done in a similar extracellular solution as for the native cells (see above) except that the concentration of MgCl2 was reduced to 1.2 mM. Intracellular electrodes contained 140 mM CsCl (instead of KCl), pH adjusted with CsOH. The voltage was held at −40 mV.

[6] = target: T2, α1V256Sβ2γ2L GABAA receptors (UniProt P22723+P62813+P63138, V283S); assay: Patch-clamp of mutant α1V256Sβ2γ2L GABAAR in HEK293 cells; format: cell-based, rat α1V256S, rat β2, mouse γ2L
T2 construct: expressed in transfected cells; host or cells: HEK293
T2 sequence (P62813 28-455 V283S): as the sequence (P62813 28-455) above, with V256S counted along it
T2 sequence (P63138 25-474 limits assumed): as the sequence (P63138 25-474 limits assumed) above
T2 sequence (P22723 39-474): as the sequence (P22723 39-474) above
Method: as §2, §3

[7] = set-up: method as in PMID 11248487; settings: volunteers (men), single oral dose ∼12 mg/kg; cited from earlier work
[8] = tested on: TGR5; set-up: method as in PMID 12524422; settings: cited from earlier work

What does the source list for `C[C@H](CCC(=O)O)[C@H]1CC[C@H]2[C@@H]3[C@@H](O)C[C@@H]4C[C@H](O)CC[C@]4(C)[C@H]3CC[C@]12C` [UDCA, ursodeoxycholic acid]?
firing at the end of UDCA application [1]: 86±5 % of control; decay kinetics of sIPSCs ([2]; 10 µM): significantly accelerated the decay kinetics of sIPSCs in some; decay kinetics of sIPSCs ([2]; 30 µM): significantly reducing decay kinetics in all investigated neurons; current amplitude at +50 mV in the presence of UDCA [3]: 69±5 % of control (−50 mV); fraction of the transmembrane field sensed at the acceptor site (f) ([3]; Woodhull fit, Eq. 3): 0.29±0.03; Kd ([3]; Woodhull fit, Eq. 3, read-out: KD(0), dissociation constant at 0 mV): 64 µM; stationary GABA current in the presence of UDCA relative to unblocked current ([3]; at +50 mV): 28±2%; stationary GABA current in the presence of UDCA relative to unblocked current ([3]; at −50 mV): 59±2%; AMPA-receptor mediated currents ([4]; 100 µM): did not affect; AMPA-receptor mediated currents (responses to 150 µM of kainate) ([4]; up to […]): did not affect; IC50 ([5]; IC50 of inhibition of GABA currents, maximal GABA, WT): 85 µM and 84.7 µM; relative amplitude of maximal GABA-responses ([5]; UDCA 100 µM, n = 7): 47±3 % of control; relative amplitude of maximal GABA-responses ([6]; UDCA 100 µM, n = 5): 87±1 % of control; IC50 ([6]; n = 4): 330 ± 41 µM; serum peak UDCA concentration [7]: ~18 ± 10 µM; sensitivity of TGR5 to UDCA [8]: rather insensitive
